Where a name gives a salt, the structure may show the parent alone.
How the values were obtained:
Enterobacter cloacae P99 = experiment: Minimum Inhibitory Concentration (MIC) by serial dilution in agar; type: cell-based
Protocol: (§1) Minimum Inhibitory Concentration (MIC) values of compounds of the invention against Enterobacter cloacae P99 and Pseudomonas aeruginosa Charlier were determined by serial dilution in agar. The plates were inoculated with 10⁴ colony forming units and incubated overnight at 37°C. The MIC values recorded in Table 1 were the lowest concentration of antibiotic to inhibit growth. Comparative data for 7β-[2-(3,4-diacetoxyphenyl)-2-[4-ethyl-2,3-dioxopiperazin-1-yl)carbonylamino]-acetamido]-7α-formamido-3-[1-methyl-1H-tetrazol-5-yl) thiomethyl]ceph-3-em-4-carboxylic acid, sodium salt (compound A), disclosed in European Patent Application No.82303821.1 (Publication Number 0 071 395; Example 57), are also given.

[1] = test system: Pseudomonas aeruginosa Charlier; experiment: as above; type: cell-based; details: 10⁴ colony forming units, incubated overnight at 37°C, lowest concentration to inhibit growth
Protocol: as §1

Q: Which MIC (Enterobacter cloacae P99) does the source give for `CCN1CCN(C(=O)NC(C(=O)N[C@]2(NC=O)C(=O)N3C(C(=O)O)=C(CSc4nnnn4C)CS[C@@H]32)c2ccc(OC(C)=O)c(OC(C)=O)c2)C(=O)C1=O` (stereo partly drawn) [Compound A, 7β-[2-(3,4-diacetoxyphenyl)-2-[4-ethyl-2,3-dioxopiperazin-1-yl)carbonylamino]acetamido]-7α-formamido-3-[1-methyl-1H-tetrazol-5-yl) thiomethyl]ceph-3-em-4-carboxylic acid, sodium salt, reference compound] here?
A: 8 µg/mL

Q: What about the MIC [1] of the same compound?
A: 4 µg/mL

Q: What does the source list for `CCN1CCN(C(=O)N[C@@H](C(=O)N[C@]2(NC=O)C(=O)N3C(C(=O)O)=C(CSc4nnnn4N)CS[C@@H]32)c2ccc(O)c(O)c2)C(=O)C1=O` [Example 2, Sodium 3-[(1-Amino-1H-tetrazol-5-yl)thiomethyl]-7β-[D-2-(3,4-dihydroxyphenyl)-2-[(4-ethyl-2,3-dioxopiperazin-1-yl)carbonylamino]acetamido]-7α-formamidoceph-3-em-4-carboxylate]?
A: MIC (Enterobacter cloacae P99): 4 µg/mL; MIC [1]: 2 µg/mL

Q: Which results are given for `CCN1CCN(C(=O)N[C@@H](C(=O)N[C@]2(NC=O)C(=O)N3C(C(=O)O)=C(CSc4nnnn4N)CS[C@@H]32)c2ccc(OC(C)=O)c(OC(C)=O)c2)C(=O)C1=O` [Example 1, Sodium 3-[(1-Amino-1H-tetrazol-5-yl)thiomethyl]-7β-[D-2-(3,4-diacetoxyphenyl)-2-[(4-ethyl-2,3-dioxopiperazin-1-yl)carbonylamino]acetamido]-7α-formamidoceph-3-em-4-carboxylate]?
A: MIC (Enterobacter cloacae P99): 2 µg/mL; MIC [1]: 2 µg/mL

Source: patent publication EP0308559A2, “Cephalosporins, process for their preparation, pharmaceutical compositions containing them and intermediates” (BEECHAM GROUP PLC, priority 1987, dated 1989)
